Assay results reported in the supplement of paper PMC10307832.

Key:
Assay in all cases: relative viability (nuclei count vs DMSO), 5 days (fraction); higher = more cells survive
GSK-J4 = compound: CCOC(=O)CCNc1cc(N2CCc3ccccc3CC2)nc(-c2ccccn2)n1 [GSK-J4]
Method in brief: (§1)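 Hoechst staining, done together with fixation and permeabilisation, marked nuclei for 4× imaging and MetaXpress counting. This followed 5 days without medium change after lung cancer cell lines, kept overnight at 37 °C in 1536-well plates, were pinned with five library-drug doses (not always all listed) spaced by √10 on vehicle-anchored plates. Viability is the ratio of treated-well to vehicle-well nuclei, expressed as a median across plates. Plates passed only at control CV below 25% with at least one doubling.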

AZ3146 = compound: CN1CCC(CC1)OC2=CC(=C(C=C2)NC3=NC=C4C(=N3)N(C(=O)N4C)C5CCCC5)OC [AZ3146]
Method in brief: as §1

AZ3146 + Pemetrexed = compound: CN1CCC(CC1)OC2=CC(=C(C=C2)NC3=NC=C4C(=N3)N(C(=O)N4C)C5CCCC5)OC [AZ3146] + Nc1nc2[nH]cc(CCc3ccc(C(=O)N[C@@H](CCC(=O)O)C(=O)O)cc3)c2c(=O)[nH]1 [Pemetrexed] (partner 0.2 µM)
Method in brief: (§2)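 Relative viability is defined as nuclei in treated wells over nuclei in vehicle wells. Duplicate plates were run and medians reported. Lung cancer cell lines in 1536-well plates were dosed by pin tool one day after seeding, with one drug or with a fixed anchor-drug dose plus five library-drug doses (not always all listed) in √10 steps, and nuclei were counted after 5 days.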

GSK-J4 + Alpelisib = compound: CCOC(=O)CCNc1cc(N2CCc3ccccc3CC2)nc(-c2ccccn2)n1 [GSK-J4] + Cc1nc(NC(=O)N2CCC[C@H]2C(N)=O)sc1-c1ccnc(C(C)(C)C(F)(F)F)c1 [Alpelisib] (partner 2 µM)
Method in brief: as §2

Row | Cell Line | relative viability (GSK-J4; 0.5 µM) | relative viability (GSK-J4; 1.581 µM) | relative viability (GSK-J4; 5 µM) | relative viability (GSK-J4; 15.81 µM) | relative viability (GSK-J4; 50 µM) | relative viability (AZ3146; 0.08 µM) | relative viability (AZ3146; 0.253 µM) | relative viability (AZ3146; 0.8 µM) | relative viability (AZ3146; 2.53 µM) | relative viability (AZ3146; 8 µM) | relative viability (AZ3146 + Pemetrexed; first compound 0.08 µM) | relative viability (AZ3146 + Pemetrexed; first compound 0.253 µM) | relative viability (AZ3146 + Pemetrexed; first compound 0.8 µM) | relative viability (AZ3146 + Pemetrexed; first compound 2.53 µM) | relative viability (AZ3146 + Pemetrexed; first compound 8 µM) | relative viability (GSK-J4 + Alpelisib; first compound 0.5 µM) | relative viability (GSK-J4 + Alpelisib; first compound 1.581 µM) | relative viability (GSK-J4 + Alpelisib; first compound 5 µM) | relative viability (GSK-J4 + Alpelisib; first compound 15.81 µM) | relative viability (GSK-J4 + Alpelisib; first compound 50 µM)
1 | 201T | 1.01 | 0.983 | 0.928 | 0.947 | 0.943 | 0.997 | 0.993 | 0.941 | 0.964 | 0.983 | 0.275 | 0.328 | 0.32 | 0.331 | 0.303 | 0.977 | 0.831 | 1.02 | 0.988 | 0.9
2 | A549 | 0.981 | 0.731 | 0.862 | 0.838 | 0.924 | 0.852 | 0.988 | 1.03 | 0.952 | 0.462 |  |  |  |  |  | 0.765 | 0.578 | 0.669 | 0.823 | 0.691
3 | A-427 | 1 |  | 0.766 | 0.865 | 0.37 | 0.963 | 1 | 1.01 | 1.04 | 0.766 | 0.898 | 0.923 | 0.976 | 0.926 | 0.766 | 1 |  | 1.17 | 1.08 | 0.561
4 | ABC-1 | 1.04 | 0.869 | 0.803 | 0.797 | 0.403 | 0.892 | 0.901 | 1.02 | 1.02 | 0.867 |  |  |  |  |  | 1.2 | 0.898 | 1.04 | 0.971 | 0.735
5 | BEN | 1.06 | 0.864 |  | 0.876 | 0.788 |  | 0.898 | 0.886 | 0.989 | 0.943 |  | 0.641 | 0.651 | 0.75 | 0.8 | 1.04 | 0.882 |  | 0.974 | 0.948
6 | CAL-12T | 0.94 | 0.838 | 1.05 | 0.93 | 0.834 | 1.03 | 0.978 | 1.07 | 1.09 | 0.776 | 1.1 | 1.15 | 1.29 | 1.33 | 1.13 | 1.12 | 1.11 | 1.43 | 1.29 | 1.29
7 | COR-L23 | 0.965 | 0.894 |  | 1 | 0.852 | 0.928 | 1.03 | 1.03 | 0.974 | 0.977 | 0.195 | 0.196 | 0.215 | 0.208 | 0.195 | 0.677 | 0.709 |  | 0.68 | 0.781
8 | Calu-6 | 0.979 | 0.945 | 0.941 | 0.983 | 1.01 | 0.964 | 1.03 | 0.948 | 0.948 | 0.799 |  |  |  |  |  | 0.914 | 0.815 | 0.834 | 1.05 | 0.915
9 | ChaGo-K-1 | 0.986 |  | 0.993 | 0.974 | 0.918 | 0.942 | 0.885 | 0.964 | 1.04 | 0.741 | 0.562 | 0.248 | 0.254 | 0.258 | 0.248 |  |  |  |  | 
10 | EBC-1 | 0.817 | 0.892 | 0.96 | 0.961 | 0.668 | 0.915 | 0.938 | 0.884 | 0.979 | 0.602 |  |  |  |  |  | 0.742 | 0.72 | 0.9 | 0.824 | 0.423
11 | IA-LM | 0.887 | 0.84 | 1.17 | 0.821 | 0.315 | 0.971 | 0.998 | 0.987 | 0.957 | 0.742 |  |  |  |  |  | 0.77 | 0.693 | 0.887 | 0.693 | 0.149
12 | NCI-H522 | 1.06 | 0.746 | 0.789 | 0.75 | 0.559 | 0.917 | 0.943 | 0.926 | 0.899 | 0.938 | 0.917 | 0.905 | 0.898 | 1.09 | 0.968 |  |  |  |  | 
13 | NCI-H727 | 0.863 | 0.754 | 1.11 | 0.85 | 0.468 | 0.838 | 1.08 | 0.838 | 1.21 | 0.74 |  |  |  |  |  | 0.549 |  | 0.894 | 0.621 | 0.264
14 | NCI-H1299 | 0.982 | 0.952 | 0.877 | 0.998 | 1 | 0.987 | 0.995 | 0.996 | 1.02 | 0.992 |  |  |  |  |  | 1.01 | 0.899 | 0.975 | 1.04 | 1.04
15 | NCI-H1648 | 0.992 |  | 1.47 | 0.496 | 0.807 |  | 0.654 | 0.924 | 0.921 | 1.03 |  |  | 1.02 | 0.801 | 0.62 |  |  |  |  | 
16 | NCI-H1650 | 1.11 | 0.791 | 0.889 | 0.808 | 0.682 | 0.966 | 0.873 | 0.812 | 0.864 | 0.652 | 0.323 | 0.324 | 0.366 | 0.376 | 0.386 |  |  |  |  | 
17 | NCI-H1703 | 0.936 | 0.903 | 0.815 | 0.781 | 0.804 | 0.979 | 0.901 | 0.789 | 0.806 | 0.55 |  |  |  |  |  | 0.286 | 0.461 | 0.289 | 0.372 | 0.363
18 | NCI-H2342 | 0.919 | 1.06 | 0.925 | 1.03 | 1.07 | 0.902 | 0.937 | 1.11 | 0.875 | 0.928 | 0.69 | 0.821 | 0.807 | 0.756 | 0.752 |  |  |  |  | 
19 | SW 900 | 0.803 | 0.794 | 0.842 | 0.863 | 0.64 | 0.77 | 0.669 | 0.751 | 1.01 | 0.686 | 0.459 |  | 0.445 | 0.492 | 0.429 |  |  |  |  | 
